pIC50: −log10 of the molar value. Read-outs that look alike come from different tables or passages of the source.
What was measured:
AChE = details: cited from earlier work
[1] = biological target: T1, acetylcholinesterase enzyme from electric eel (Electrophorus electricus, UniProt O42275); assay: Acetylcholinesterase (AChE) inhibitory assay (DTNB/acetylthiocholine iodide, absorbance at 412 nm); format: biochemical; details: for inhibition at 1.56 µg/mL: Conc 1.56 ug/ml; for inhibition at 3.125 µg/mL: Conc 3.125 ug/ml; for inhibition at 6.25 µg/mL: Conc 6.25 ug/ml; for inhibition at 12.5 µg/mL: Conc 12.5 ug/ml; for inhibition at 25 µg/mL: Conc 25 ug/ml; for inhibition at 50 µg/mL: Conc 50 ug/ml; for IC50: supplement, six concentrations 1.56-50 μg/mL, read-out: IC50 (AchE inhibition) (converted)
T1 construct: purchased Sigma-Aldrich CAS Number 9000-81-1 (catalogue number not given)
Description: The in vitro cholinesterase inhibitory activity of the 14 synthesized spiro-oxindole derivatives (IIa–n) were evaluated. […] Galantamine was used as a positive control for comparison.
Acetylcholinesterase (AChE) inhibitory assay.
140 μL of 0.1 M sodium phosphate buffer of pH 8 was first added to a 96-wells microplate followed by 20 μL of test samples and 20 μL of 0.09 units/mL acetylcholinesterase enzyme from electric eel (Sigma-Aldrich, CAS Number 9000-81-1). After 15 min of incubation at 25 °C, 10 μL of 10 mM 5,5′-dithiobis-2-nitrobenzoic acid (DTNB, Sigma-Aldrich, CAS Number 69-78-3) was added into each well followed by 10 μL of 14 mM acetylthiocholine iodide (Sigma-Aldrich, CAS Number 1866-15-5). Thirty min after the initiation of enzymatic reaction, absorbance of the colored end-product was measured using StatFax-2100 microplate reader (Awareness Technology, Inc., USA) at 412 nm. Each test was conducted in triplicates. Test samples were prepared in DMSO at an initial concentration of 1 mg/mL (1000 ppm).
The concentration of DMSO in final reaction mixture was 1%.
The initial screening was carried out at 50 μg/mL of test samples in 1% DMSO. Absorbance of the test samples was corrected by subtracting the absorbance of their respective blank. Percentage enzyme inhibition is calculated using the following formula Percentage of inhibition = Absorbance of control - […]

[2] = read-out: IC50 value against AChE

T1 sequence (O42275 24-633): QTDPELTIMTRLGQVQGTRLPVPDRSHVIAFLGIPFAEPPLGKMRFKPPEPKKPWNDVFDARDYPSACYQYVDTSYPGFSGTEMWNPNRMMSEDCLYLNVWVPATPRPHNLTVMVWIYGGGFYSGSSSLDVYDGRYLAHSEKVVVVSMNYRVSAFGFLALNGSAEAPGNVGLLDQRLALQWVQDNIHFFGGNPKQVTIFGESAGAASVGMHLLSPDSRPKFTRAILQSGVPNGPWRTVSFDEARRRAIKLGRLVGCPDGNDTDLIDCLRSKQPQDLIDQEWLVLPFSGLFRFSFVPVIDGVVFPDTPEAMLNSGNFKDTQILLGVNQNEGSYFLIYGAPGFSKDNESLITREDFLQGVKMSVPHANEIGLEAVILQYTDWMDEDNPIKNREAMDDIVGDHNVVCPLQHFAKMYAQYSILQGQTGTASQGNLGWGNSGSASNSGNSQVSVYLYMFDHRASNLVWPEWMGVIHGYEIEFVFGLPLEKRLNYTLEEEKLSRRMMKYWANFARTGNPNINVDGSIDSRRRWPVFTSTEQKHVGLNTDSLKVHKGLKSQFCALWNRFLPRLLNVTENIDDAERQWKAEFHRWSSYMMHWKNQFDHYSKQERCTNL

Work on O=C(c1ccccc1)C1C(c2cc3ccccc3s2)C2CSCN2[C@@]12C(=O)Nc1ccc(Cl)cc12 (stereo partly drawn) [IIa, (3S)-7′-(Benzo[b]thiophen-2-yl)-6′-benzoyl-5-chloro-3′,6′,7′,7a’-tetrahydro-1′H-spiro[indoline-3,5′-pyrrolo[1,2-c]thiazol]-2-one] yielded an inhibition at 1.56 µg/mL [1] of 1.68%, an inhibition at 3.125 µg/mL [1] of 6.58% and an inhibition at 6.25 µg/mL [1] of 14.4%. For the same compound, the inhibition at 12.5 µg/mL [1] was 27.7%, the inhibition at 25 µg/mL [1] was 39% and the inhibition at 50 µg/mL [1] was 50.4%. The pIC50 [1, 2] was < 4.15 and the IC50 [1] was 85.6 µM.
With O=C(c1ccccc1)C1C(c2cc3ccccc3s2)C2CSCN2[C@@]12C(=O)Nc1ccccc12 (stereo partly drawn) [IIb, (3S)-7′-(Benzo[b]thiophen-2-yl)-6′-benzoyl-3′,6′,7′,7a’-tetrahydro-1′H-spiro[indoline-3,5′-pyrrolo[1,2-c]thiazol]-2-one] the inhibition at 1.56 µg/mL [1] was 2.76%, the inhibition at 3.125 µg/mL [1] was 8.12% and the inhibition at 6.25 µg/mL [1] was 16.2%. It also gave an inhibition at 12.5 µg/mL [1] of 25.6%, an inhibition at 25 µg/mL [1] of 40.9% and an inhibition at 50 µg/mL [1] of 51.5%. For the same compound, the pIC50 [1, 2] was < 4.15 and the IC50 [1] was 88.4 µM.
In the case of O=C(c1ccccc1)C1C(c2cc3ccccc3s2)C2C3CCCCC3CN2[C@@]12C(=O)Nc1ccc(Cl)cc12 (stereo partly drawn) [IIc, (3S)-1′-(Benzo[b]thiophen-2-yl)-2′-benzoyl-5-chloro-1′,2′,5′,5a’,6′,7′,8′,9′,9a’,9b’-decahydrospiro[indoline-3,3′-pyrrolo[2,1-a]isoindol]-2-one], the inhibition at 1.56 µg/mL [1] was 13.9%, the inhibition at 3.125 µg/mL [1] was 29.9% and the inhibition at 6.25 µg/mL [1] was 43.5%. The inhibition at 12.5 µg/mL [1] was 54.5%, the inhibition at 25 µg/mL [1] was 61.6% and the inhibition at 50 µg/mL [1] was 70.3%. For the same compound, the IC50 [1] was 20.8 µM.
O=C(c1ccc(Cl)cc1)C1C(c2cc3ccccc3s2)C2CSCN2[C@@]12C(=O)Nc1ccc(Cl)cc12 (stereo partly drawn) [IId, (3S)-7′-(Benzo[b]thiophen-2-yl)-5-chloro-6′-(4-chlorobenzoyl)-3′,6′,7′,7a’-tetrahydro-1′H-spiro[indoline-3,5′-pyrrolo[1,2-c]thiazol]-2-one] showed an inhibition at 1.56 µg/mL [1] of 19.8%, an inhibition at 3.125 µg/mL [1] of 24.8% and an inhibition at 6.25 µg/mL [1] of 29.7%. The inhibition at 12.5 µg/mL [1] was 41.5%, the inhibition at 25 µg/mL [1] was 53.3% and the inhibition at 50 µg/mL [1] was 64%. It also gave a pIC50 [1, 2] of 4.42 and an IC50 [1] of 37.7 µM.
Compound O=C(c1ccc(Cl)cc1)C1C(c2cc3ccccc3s2)C2CSCN2[C@@]12C(=O)Nc1ccccc12 (stereo partly drawn) [IIe, (3S)-7′-(Benzo[b]thiophen-2-yl)-6′-(4-chlorobenzoyl)-3′,6′,7′,7a’-tetrahydro-1′H-spiro[indoline-3,5′-pyrrolo[1,2-c]thiazol]-2-one] has an inhibition at 1.56 µg/mL [1] of 18.2%, an inhibition at 3.125 µg/mL [1] of 23.3% and an inhibition at 6.25 µg/mL [1] of 27.7%. For the same compound, the inhibition at 12.5 µg/mL [1] was 40.3%, the inhibition at 25 µg/mL [1] was 50.5% and the inhibition at 50 µg/mL [1] was 58.6%. For the same compound, the pIC50 [1, 2] was 4.30 and the IC50 [1] was 50.6 µM.
Work on O=C(c1ccc(Cl)cc1)C1C(c2cc3ccccc3s2)C2C3CCCCC3CN2[C@@]12C(=O)Nc1ccc(Cl)cc12 (stereo partly drawn) [IIf, (3S)-1′-(Benzo[b]thiophen-2-yl)-5-chloro-2′-(4-chlorobenzoyl)-1′,2′,5′,5a’,6′,7′,8′,9′,9a’,9b’-decahydrospiro[indoline-3,3′-pyrrolo[2,1-a]isoindol]-2-one] yielded an inhibition at 1.56 µg/mL [1] of 16.1%, an inhibition at 3.125 µg/mL [1] of 24.4% and an inhibition at 6.25 µg/mL [1] of 34.9%. It also gave an inhibition at 12.5 µg/mL [1] of 43%, an inhibition at 25 µg/mL [1] of 53% and an inhibition at 50 µg/mL [1] of 63.1%. The pIC50 [1, 2] was 4.47 and the IC50 [1] was 34 µM.
O=C(c1ccc(F)cc1)C1C(c2cc3ccccc3s2)C2CSCN2[C@@]12C(=O)Nc1ccc(Cl)cc12 (stereo partly drawn) [IIg, (3S)-7′-(Benzo[b]thiophen-2-yl)-5-chloro-6′-(4-fluorobenzoyl)-3′,6′,7′,7a’-tetrahydro-1′H-spiro[indoline-3,5′-pyrrolo[1,2-c]thiazol]-2-one] showed an inhibition at 1.56 µg/mL [1] of 23.4%, an inhibition at 3.125 µg/mL [1] of 30.3% and an inhibition at 6.25 µg/mL [1] of 41.5%. The inhibition at 12.5 µg/mL [1] was 51.8%, the inhibition at 25 µg/mL [1] was 59% and the inhibition at 50 µg/mL [1] was 68.3%. The pIC50 [1, 2] was 4.64 and the IC50 [1] was 23 µM.
For O=C(c1ccc(F)cc1)C1C(c2cc3ccccc3s2)C2C3CCCCC3CN2[C@@]12C(=O)Nc1ccc(Cl)cc12 (stereo partly drawn) [IIh, (3S)-1′-(Benzo[b]thiophen-2-yl)-5-chloro-2′-(4-fluorobenzoyl)-1′,2′,5′,5a’,6′,7′,8′,9′,9a’,9b’-decahydrospiro[indoline-3,3′-pyrrolo[2,1-a]isoindol]-2-one], the inhibition at 1.56 µg/mL [1] was 0.46%, the inhibition at 3.125 µg/mL [1] was 6.58% and the inhibition at 6.25 µg/mL [1] was 10.7%. The inhibition at 12.5 µg/mL [1] was 23.3%, the inhibition at 25 µg/mL [1] was 27.4% and the inhibition at 50 µg/mL [1] was 43%. It also gave a pIC50 ([1]; Table 1, read-out: AChE Inhibition IC50) of 3.91 and an IC50 [1] of 122 µM.
Compound O=C(c1ccc(C(F)(F)F)cc1)C1C(c2cc3ccccc3s2)C2CSCN2[C@@]12C(=O)Nc1ccc(Cl)cc12 (stereo partly drawn) [IIi, (3S)-7′-(Benzo[b]thiophen-2-yl)-5-chloro-6′-(4-(trifluoromethyl)benzoyl)-3′,6′,7′,7a’-tetrahydro-1′H-spiro[indoline-3,5′-pyrrolo[1,2-c]thiazol]-2-one] has an inhibition at 1.56 µg/mL [1] of 1.23%, an inhibition at 3.125 µg/mL [1] of 7.35% and an inhibition at 6.25 µg/mL [1] of 12.7%. The inhibition at 12.5 µg/mL [1] was 26.2%, the inhibition at 25 µg/mL [1] was 38.7% and the inhibition at 50 µg/mL [1] was 52.4%. For the same compound, the IC50 [1] was 72.4 µM.
For O=C(c1ccc(C(F)(F)F)cc1)C1C(c2cc3ccccc3s2)C2CSCN2[C@@]12C(=O)Nc1ccccc12 (stereo partly drawn) [IIj, (3S)-7′-(Benzo[b]thiophen-2-yl)-6′-(4-(trifluoromethyl)benzoyl)-3′,6′,7′,7a’-tetrahydro-1′H-spiro[indoline-3,5′-pyrrolo[1,2-c]thiazol]-2-one], the inhibition at 1.56 µg/mL [1] was 1.68%, the inhibition at 3.125 µg/mL [1] was 6.43% and the inhibition at 6.25 µg/mL [1] was 12.2%. For the same compound, the inhibition at 12.5 µg/mL [1] was 29.4%, the inhibition at 25 µg/mL [1] was 41% and the inhibition at 50 µg/mL [1] was 50.7%. For the same compound, the IC50 [1] was 76 µM.
With O=C(c1ccc(C(F)(F)F)cc1)C1C(c2cc3ccccc3s2)C2C3CCCCC3CN2[C@@]12C(=O)Nc1ccc(Cl)cc12 (stereo partly drawn) [IIk, (3S)-1′-(Benzo[b]thiophen-2-yl)-5-chloro-2′-(4-(trifluoromethyl)benzoyl)-1′,2′,5′,5a’,6′,7′,8′,9′,9a’,9b’-decahydrospiro[indoline-3,3′-pyrrolo[2,1-a]isoindol]-2-one] the inhibition at 1.56 µg/mL [1] was 9.95%, the inhibition at 3.125 µg/mL [1] was 24.8% and the inhibition at 6.25 µg/mL [1] was 32.8%. It also gave an inhibition at 12.5 µg/mL [1] of 41.8%, an inhibition at 25 µg/mL [1] of 49.2% and an inhibition at 50 µg/mL [1] of 57.3%. For the same compound, the pIC50 [1, 2] was 4.38 and the IC50 [1] was 41.5 µM.
O=C(c1ccc(Br)cc1)C1C(c2cc3ccccc3s2)C2CSCN2[C@@]12C(=O)Nc1ccc(Cl)cc12 (stereo partly drawn) [IIl, (3S)-7′-(Benzo[b]thiophen-2-yl)-6′-(4-bromobenzoyl)-5-chloro-3′,6′,7′,7a’-tetrahydro-1′H-spiro[indoline-3,5′-pyrrolo[1,2-c]thiazol]-2-one] showed an inhibition at 1.56 µg/mL [1] of 11.6%, an inhibition at 3.125 µg/mL [1] of 25.6% and an inhibition at 6.25 µg/mL [1] of 34.9%. The inhibition at 12.5 µg/mL [1] was 44.4%, the inhibition at 25 µg/mL [1] was 56.5% and the inhibition at 50 µg/mL [1] was 64.9%. For the same compound, the pIC50 [1, 2] was 4.53 and the IC50 [1] was 29.8 µM.
O=C(c1ccc(Br)cc1)C1C(c2cc3ccccc3s2)C2CSCN2[C@@]12C(=O)Nc1ccccc12 (stereo partly drawn) [IIm, (3S)-7′-(Benzo[b]thiophen-2-yl)-6′-(4-bromobenzoyl)-3′,6′,7′,7a’-tetrahydro-1′H-spiro[indoline-3,5′-pyrrolo[1,2-c]thiazol]-2-one] showed a pIC50 [1, 2] of 4.38.
O=C(c1ccc(Br)cc1)C1C(c2cc3ccccc3s2)C2C3CCCCC3CN2[C@@]12C(=O)Nc1ccc(Cl)cc12 (stereo partly drawn) [IIn, (3S)-1′-(Benzo[b]thiophen-2-yl)-2′-(4-bromobenzoyl)-5-chloro-1′,2′,5′,5a’,6′,7′,8′,9′,9a’,9b’-decahydrospiro[indoline-3,3′-pyrrolo[2,1-a]isoindol]-2-one] showed an inhibition at 1.56 µg/mL [1] of 15.6%, an inhibition at 3.125 µg/mL [1] of 23.4% and an inhibition at 6.25 µg/mL [1] of 32.5%. The inhibition at 12.5 µg/mL [1] was 41.8%, the inhibition at 25 µg/mL [1] was 50.1% and the inhibition at 50 µg/mL [1] was 61%. It also gave a pIC50 [1, 2] of 4.43 and an IC50 [1] of 36.8 µM.
In the case of O=C1/C(=C/c2ccc(Cl)cc2Cl)CN(C(=O)C2CC3CCCN3C23C(=O)Nc2cc(Cl)ccc23)C/C1=C\c1ccc(Cl)cc1Cl (stereo not shown) [compound A], the “AChE inhibitory activity IC50” value (AChE; compound A) is listed as 2.37 ± 0.11 µg/mL and the pIC50 (AChE; compound A, read-out: AChE inhibitory activity IC50) is listed as 5.48.
For O=C1/C(=C/c2ccc(Cl)cc2)CN(C(=O)C2CC3CCCN3C23C(=O)Nc2ccccc23)C/C1=C\c1ccc(Cl)cc1 (stereo not shown) [compound B], the “AChE inhibitory activity IC50” value (AChE; compound B, Figure 1) is given as 2.28 ± 0.07 µg/mL.
